Data reported in patent publication US10933051B2, “Carbapenem compounds and compositions for the treatment of bacterial infections” (FOB Synthesis, Inc., priority 2017, dated 2021).

Tests used:
Format in all cases: cell-based
Parameters in all cases: unit not given here
[1] = system: P. aeruginosa FSPa-121; experiment: Antimicrobial Susceptibility Test (CLSI), Test Example 2; conditions: Table 4; strain produces OXA-17
Protocol: (§1) Antimicrobial Susceptibility Test was performed by the CLSI (Clinical and Laboratory Standards Institute) methods. The agar dilution method for determining antimicrobial susceptibility was carried out using Mueller Hinton-II agar and the amount of inoculation was 10^4CFU/spot. Broth dilution tests were performed using the Mueller Hinton-II broth. All assays were run with the indicated control strains, available from the ATCC (American Type Culture Collection, Rockville, Md.).

[2] = system: A. baumannii FSAb-056; experiment: as above; conditions: Table 4; strain produces OXA-23, OXA-51
Protocol: as §1

[3] = system: A. baumannii FSAb-039; experiment: as above; conditions: Table 4; strain produces OXA-51
Protocol: as §1

[4] = system: K. pneumoniae ATCC BAA-1904; experiment: as above; conditions: Table 4; strain produces KPC-3
Protocol: as §1

[5] = system: A. baumannii FSAb-065; experiment: as above; conditions: Table 4; strain produces OXA-2, VIM-2
Protocol: as §1

[6] = system: E. coli FSEco-054; experiment: as above; conditions: Table 4; strain produces ESBL
Protocol: as §1

[7] = system: A. baumannii FSAb-029; experiment: as above; conditions: Table 4; strain produces OXA-2, IMP-1
Protocol: as §1

[8] = system: A. baumannii 4010; experiment: MIC by CLSI agar/broth dilution, Test Example 1; conditions: Table 2; strain produces OXA-51
Protocol: (§2) The MIC (minimum inhibitory concentration) was determined by the CLSI (Clinical and Laboratory Standards Institute) methods. The agar dilution method for determining antimicrobial susceptibility was carried out using Mueller Hinton-II agar and the amount of inoculation was 10^4 CFU/spot. Broth dilution tests were performed using Mueller Hinton-II broth. All assays were run with the indicated control strains, available from the ATCC (American Type Culture Collection, Rockville, Md.).

[9] = system: P. aeruginosa ATCC27853; experiment: MIC by CLSI agar/broth dilution, Test Example 1; conditions: Table 2
Protocol: as §2

[10] = system: K. pneumoniae ATCC10031; experiment: MIC by CLSI agar/broth dilution, Test Example 1; conditions: Table 2
Protocol: as §2

[11] = system: E. coli ATCC10536; experiment: MIC by CLSI agar/broth dilution, Test Example 1; conditions: Table 2
Protocol: as §2

[12] = system: A. baumannii KABA 01-33; experiment: MIC by CLSI agar/broth dilution, Test Example 1; conditions: Table 2; strain produces OXA-2, VIM-2
Protocol: as §2

| MIC (minimum inhibitory concentration), A. baumannii 4010 [8] | MIC (minimum inhibitory concentration), P. aeruginosa ATCC27853 [9] | MIC (minimum inhibitory concentration), K. pneumoniae ATCC10031 [10] | MIC (minimum inhibitory concentration), E. coil ATCC10536 [11] | MIC (minimum inhibitory concentration), A. baumannii KABA 01-33 [12] | SMILES | antimicrobial susceptibility, P. aeruginosa FSPa-121 [1] | antimicrobial susceptibility, A. baumannii FSAb-056 [2] | antimicrobial susceptibility, A. baumannii FSAb-039 [3] | antimicrobial susceptibility, K. pneumoniae BAA-1904 [4] | antimicrobial susceptibility, A. baumannii FSAb-065 [5] | antimicrobial susceptibility, E. coil FSEco-054 [6] | antimicrobial susceptibility, A. baumannii FSAb-029 [7] |
| --- | --- | --- | --- | --- | --- | --- | --- | --- | --- | --- | --- | --- |
| 2 | 4 | 0.063 | 0.5 | 1 | C[C@@H](O)[C@H]1C(=O)N2C(C(=O)O)=C(CN(C)CCNC(=O)c3ccc(O)c(O)c3Cl)[C@H](C)[C@H]12 [Compound 1] | 2 | 2 | 2 | 8 | 1 | 1 | 1 |
| 8 | 16 | 0.13 | 1 | 2 | C[C@@H](O)[C@H]1C(=O)N2C(C(=O)O)=C(CN(C)CCNC(=O)c3cc(O)c(O)cc3Cl)[C@H](C)[C@H]12 [Compound 5] | 8 | 8 | 8 | 32 | 8 | 4 | 8 |
| 4 | 8 | 0.063 | 0.5 | 1 | C[C@@H](O)[C@H]1C(=O)N2C(C(=O)O)=C(CN(C)CCNC(=O)c3cc(O)c(O)c(Cl)c3)[C@H](C)[C@H]12 [Compound 6] | 2 | 2 | 4 | 32 | 2 | 1 | 2 |
| 4 | 4 | 0.063 | 0.5 | 1 | C[C@@H](O)[C@H]1C(=O)N2C(C(=O)O)=C(CN(C)CC(=O)NCCNC(=O)c3ccc(O)c(O)c3Cl)[C@H](C)[C@H]12 [Compound 19] | 4 | 8 | 8 | 8 | 8 | 8 | 8 |
| 8 | 8 | 0.13 | 0.5 | 2 | C[C@@H](O)[C@H]1C(=O)N2C(C(=O)O)=C(CN(C)CC(=O)NCc3cc(=O)c(O)cn3O)[C@H](C)[C@H]12 [Compound 26] | 4 | 4 | 16 | 32 | 4 | 4 | 16 |
